Assay: oxygen radical absorbance capacity (ORAC) assay, antioxidant (AOX) strength testing
Settings: 0.5% ferulic acid, 0.5% salicylic acid
Description: The peroxyl radical, generated from the thermal decomposition of 2,2'-azobis-2-methyl-propanimidamide dihydrochloride (AAPH), will quench a fluorescent probe by a hydrogen atom transfer reaction. In the presence of an antioxidant, however, the molecule will initially block or prevent the quenching of the probe, causing a delay in the fluorescence decay profile. The area under the fluorescence decay curves for samples with and without the presence of an antioxidant are compared to that of a standard reference material and the peroxyl radical antioxidant capacity is determined. References disclosing ORAC assays include Cao G, Alessio H, Cutler R (1993). “Oxygen-radical absorbance capacity assay for antioxidants”. Free Radic Biol Med 14 (3): 303-11; Ou B, Hampsch-Woodill M, Prior R (2001). “Development and validation of an improved oxygen radical absorbance capacity assay using fluorescein as the fluorescent probe”. J Agric Food Chem 49 (10): 4619-26; Huang D, Ou B, Prior R (2005). “The chemistry behind antioxidant capacity assays”. J. Agric. Food Chem. 53 (6): 1841-56; and Garrett A R, Murray B K, Robison […] (2010). “Measuring antioxidant capacity using the ORAC and TOSC assays”. Advanced Protocols in Oxidative Stress II: Methods in Molecular Biology (series), Donald J Armstrong (ed) 594: 251-62.

Row | SMILES | contribution to antioxidant potential of the association (Zinc PCA 0.5% added to compositions with 15% ascorbic acid) | effect on overall antioxidant capacity of the association (1% gallic acid added to 15% ascorbic acid) | effect on overall antioxidant capacity of the association (5% gallic acid added to 15% ascorbic acid)
1 | O=C1CC[C@@H](C(=O)[O-])N1.O=C1CC[C@@H](C(=O)[O-])N1.[Zn+2] [Zinc PCA] | not found to be a contributing factor | – | –
2 | O=C(O)c1cc(O)c(O)c(O)c1 [gallic acid, 3,4,5-trihydroxybenzoic acid] | – | modest | significant

Source: patent US20210085582A1, “SYNERGISTIC ANTIOXIDANT ACID COMPOUND ASSOCIATIONS” (L'OREAL, priority 2019, published 2021)
